Experimental data published in ChEMBL document CHEMBL3593237, “Synthesis and biological evaluation of isoflavone amide derivatives with antihyperlipidemic and preadipocyte antiproliferative activities” (Bioorg Med Chem, 2015).
pIC50: −log10 of the molar value. One block for each compound: values may come before it. Calls of active or inactive are those of the source. No cut-off for these calls is given here.

What was measured:
[1] = tested on: 3T3-L1; test: Inhibition of cell proliferation of mouse 3T3L1 cells at 100 uM incubated for 48 hrs by MTT assay; assay type: functional, cell-based
[2] = target: T1, Cholesteryl ester transfer protein (Oryctolagus cuniculus) (UniProt P22687); test: Inhibition of CETP in rabbit serum at 100 uM incubated for 1 hr using NBD-labeled cholesterol in HDL and LDL by fluorescence based assay
T1 sequence (whole entry): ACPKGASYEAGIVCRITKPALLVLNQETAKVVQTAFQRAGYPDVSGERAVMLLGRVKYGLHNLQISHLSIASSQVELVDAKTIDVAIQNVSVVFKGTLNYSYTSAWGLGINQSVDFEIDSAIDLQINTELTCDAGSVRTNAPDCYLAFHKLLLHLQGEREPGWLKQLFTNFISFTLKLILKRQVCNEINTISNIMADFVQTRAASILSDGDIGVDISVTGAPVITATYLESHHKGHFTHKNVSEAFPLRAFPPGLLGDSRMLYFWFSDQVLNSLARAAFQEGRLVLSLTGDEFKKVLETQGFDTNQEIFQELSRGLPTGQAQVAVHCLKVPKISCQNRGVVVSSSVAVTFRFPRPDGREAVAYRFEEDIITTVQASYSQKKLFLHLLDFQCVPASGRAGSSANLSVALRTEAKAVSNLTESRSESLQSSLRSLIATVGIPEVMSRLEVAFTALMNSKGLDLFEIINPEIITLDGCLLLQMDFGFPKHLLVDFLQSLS

[3] = target: T2, Cholesteryl ester transfer protein (Oryctolagus cuniculus, UniProt P22687); test: Inhibition of CETP in rabbit serum incubated for 1 hr using NBD-labeled cholesterol in HDL and LDL by fluorescence based assay
T2 sequence (P22687 whole entry): T1 sequence (whole entry)

[4] = tested on: HepG2; test: Toxicity against human HepG2 cells assessed as inhibition of cell proliferation at 100 uM incubated for 48 hrs by MTT assay; assay type: cell-based; conditions: hepg2, 48 h
[5] = tested on: Syrian golden hamster; test: Antihyperlipidemic activity in Syrian golden hamster model of high lipid diet-induced dyslipidemia model assessed as reduction in LDL-C at 50 mg/kg/day, po for 28 days; assay type: functional, Mesocricetus auratus; set-up: scale not given: the % may be the effect or the level left
[6] = tested on: Syrian golden hamster; test: Antihyperlipidemic activity in Syrian golden hamster model of high lipid diet-induced dyslipidemia model assessed as increase in HDL-C at 50 mg/kg/day, po for 28 days; assay type: functional, Mesocricetus auratus

SMILES: O=C(COc1ccccc1)Nc1ccc(-c2coc3cc(O)ccc3c2=O)cc1
inhibition [1]: inactive
inhibition [2]: Active

SMILES: CC(=O)Oc1ccc2c(=O)c(-c3ccc(NC(=O)COc4ccccc4)cc3)coc2c1
pIC50 [3]: 5.82
Activity [4]: Non-toxic
inhibition [1]: Active
inhibition [2]: Active
Activity [5]: 44.6%
Activity [6]: 66%

SMILES: CC(=O)Oc1ccc2c(=O)c(-c3ccc(NC(=O)COc4ccc(C)cc4)cc3)coc2c1
inhibition [1]: Active
inhibition [2]: inactive

SMILES: CC(=O)Oc1ccc2c(=O)c(-c3ccc(NC(=O)COc4cccc(C)c4)cc3)coc2c1
inhibition [1]: Active
inhibition [2]: inactive

SMILES: CCCCCCCC/C=C\CCCCCCCC(=O)Oc1ccc2c(=O)c(-c3ccc(OC)cc3)coc2c1
inhibition [1]: Active

SMILES: COc1ccccc1OCC(=O)Nc1ccc(-c2coc3cc(O)ccc3c2=O)cc1
inhibition [1]: inactive
inhibition [2]: inactive

Continued, in another order:

inhibition [2]: Active
SMILES: Cc1ccccc1OCC(=O)Nc1ccc(-c2coc3cc(O)ccc3c2=O)cc1
inhibition [1]: inactive

pIC50 [3]: 5.07
inhibition [2]: Active
SMILES: CC(=O)Oc1ccc2c(=O)c(-c3ccc(NC(=O)COc4ccccc4C)cc3)coc2c1
inhibition [1]: Active

inhibition [2]: Active
SMILES: COc1cc(F)c(C(C)C)cc1-c1ccc(C(F)(F)F)cc1CN1C(=O)O[C@H](c2cc(C(F)(F)F)cc(C(F)(F)F)c2)[C@@H]1C

inhibition [2]: Active
SMILES: CC(=O)Oc1ccc2c(=O)c(-c3ccc(NC(=O)COc4cccc5ccccc45)cc3)coc2c1
inhibition [1]: Active

inhibition [2]: inactive
SMILES: COc1ccccc1OCC(=O)Nc1ccc(-c2coc3cc(OC(C)=O)ccc3c2=O)cc1
inhibition [1]: Active

inhibition [2]: Active
SMILES: O=C(COc1cccc2ccccc12)Nc1ccc(-c2coc3cc(O)ccc3c2=O)cc1
inhibition [1]: inactive

inhibition [2]: Active
SMILES: Cc1cccc(OCC(=O)Nc2ccc(-c3coc4cc(O)ccc4c3=O)cc2)c1
inhibition [1]: inactive

inhibition [2]: Active
SMILES: Cc1ccc(OCC(=O)Nc2ccc(-c3coc4cc(O)ccc4c3=O)cc2)cc1
inhibition [1]: inactive
